“Also recorded” adds a separate entry of the source.
Tests used:
[1] = system: Splenocytes; experiment: Splenocyte proliferation and cytokine release after trauma-hemorrhage (ex vivo, Con A); assay type: in vivo, mouse
Procedure: Experimental groups. Ovariectomy was performed in female CBA/J mice 2 wk before trauma-hemorrhage using two dorsolateral incisions. […] Two weeks after ovariectomy, the animals were divided into four groups. Groups 1 and 2 consisted of sham-operated ovariectomized females, which were neither hemorrhaged nor resuscitated. Animals in groups 3 and 4 consisted of ovariectomized females, which were subjected to the trauma-hemorrhage procedure. Immediately before initiation of fluid resuscitation, animals in groups 1 and 3 received a subcutaneous injection of vehicle ([…] corn oil), and animals in groups 2 and 4 were treated with E2 ([…]/25 g body wt dissolved in […] corn oil). Each group consisted of 7-8 animals.
Trauma-hemorrhage procedure. Mice in the trauma-hemorrhage groups were lightly anesthetized with methoxyflurane (Metofane; Pitman Moore, Mundelein, Ill.) and restrained in a supine position, and a 2.5-cm midline laparotomy (i.e., soft tissue trauma induced) was performed, which was then closed aseptically in two layers using 6-0 Ethilon sutures (Ethicon, Somerville, N.J.). Both femoral arteries were then aseptically cannulated with polyethylene-10 tubing (Clay-Adams, Parsippany, N.J.) using a minimal dissection technique, and the animals were allowed to awaken. Blood pressure was constantly monitored by attaching one of the catheters to a blood pressure analyzer (Micro-Med, Louisville, Ky.). Lidocaine was applied to the incision sites to provide analgesia during the study period. Upon awakening, the animals were bled through the other catheter to a mean arterial blood pressure of 35±5 mmHg (mean arterial blood pressure prehemorrhage was 95±5 mmHg), which was maintained for 90 min. At the end of that procedure, the animals were resuscitated with four times the shed blood volume in the form of lactated Ringer solution. The catheters were then removed, the vessels were ligated, and the groin incisions were closed. Sham-operated animals underwent the same surgical procedure, which included ligation of both femoral arteries, but neither hemorrhage nor fluid resuscitation was carried out. There was no mortality observed in this model of trauma-hemorrhage.
Preparation of splenocyte culture. At 24 h after sham operation or trauma-hemorrhage and resuscitation, the spleens were removed aseptically and placed in separate petri dishes containing 4° C. phosphate-buffered saline (PBS) solution. Splenocytes were isolated as previously described in detail (Zellweger 1995). Briefly, the organs were gently ground between frosted microscope slides to produce a single cell suspension. This suspension was centrifuged at 300 g for 15 min. After resuspension, the erythrocytes were lysed hypotonically, and the remaining cells were washed with PBS by centrifugation (300 g, 15 min). Viability was tested using trypan blue exclusion and found to be ˜95% regardless of the group assessed. […] The ability of the splenocyte cultures to produce cytokines in response to a mitogenic challenge was assessed by incubation for 48 h (at 37° C., 5% CO2, and 90% humidity) in the presence of […] concanavalin A (Con A; Pharmacia/LKB Biotech, Piscataway, N.J.). […]
Splenocyte proliferation. […] The cells' ability to proliferate in response to mitogenic stimulation with 0 (negative control) or […] Con A was measured by [^3H]thymidine incorporation technique as previously de scribed (Stephan 1987). […]

[2] = system: Male SD rats; experiment: Survival and blood pressure after trauma-hemorrhage with 60% blood loss and no fluid resuscitation; assay type: in vivo, rat
Procedure: 16 rats were subjected to 60% removal of blood volume, using the same protocol found in Example 5.
Furthermore, crystalloid fluid resuscitation was administered following an initial 3-hour interval after the trauma and major blood loss, and rats were followed for 7 days. It has been observed that rats which survive for the initial 3 hours uniformly go on to survive for prolonged period of time and were then sacrificed. The survival rate is 68% for estrogen-treated rats, while all untreated control rats have died within the initial 3-hour interval (see FIG. 21).
(§1) Although E2 administration after trauma-hemorrhage (T-H) and fluid resuscitation produces salutary effects on organ functions, it was not known if E2 has any beneficial effects after major blood loss in the absence of fluid resuscitation. Male SD rats ˜250 g) underwent T-H (tissue trauma, BP 40 mmHg in 10 min and maintained at that BP by further blood withdrawal until maximum bleed out (MBO, 60% of total blood volume) occurred (45:t5 min)). E2 i.v. (1 mg/Kg, 0.4 ml/Kg volume, i.e., 120 μL/300 g body weight) or vehicle (cyclodextrin, CD) was then infused. No additional fluid was given for 3 hours. If rats survived, they received Ringer's lactate, 4× the MBO volume. A custom-fabricated 31p coil was placed on the surface of the rat's liver after laparotomy in another group, and spectra acquired using 4.7T NMR spectroscopy via a 31p coil in real time before and during hemorrhagic shock. Shock increased phosphomonoester and Pi with a concomitant decrease in β-ATP in both groups.

[3] = system: liver ATP and pH; experiment: 31P NMR spectroscopy of liver ATP and intracellular pH during hemorrhagic shock; assay type: in vivo, rat; conditions: FIG. 23; vs cyclodextrin control; listed as E2
Procedure: Imaging and nuclear magnetic resonance studies were conducted to evaluate the effects of E2 on preservation of adenosine triphosphate (ATP) and pH levels in the liver.
The traumatic injury can involve a reduction in cellular ATP levels as compared to control ATP levels. By “control” is meant levels as measured before the traumatic injury, or levels that are considered in the “normal” range for the subject. Imaging and nuclear magnetic resonance studies have also been conducted to evaluate the effects of E2 on preservation of adenosine triphosphate (ATP) and pH levels in the liver.
as §1, with “A custom-fabricated 31p coil was placed on the surface of the rat's liver after laparotomy in another group, and spectra acquired using 4.7T NMR spectroscopy via a 31p coil in real time before and during hemorrhagic shock. Shock increased phosphomonoester and Pi with a concomitant decrease in β-ATP in both groups.” left out

[4] = system: isolated vascular rings; experiment: Vascular reactivity of isolated vascular rings in a physiological bath; parameters: species or system rat or pig; conditions: antagonist added to EE-3-SO4
Procedure: Data to delineate the mechanism of action for EE-3-SO4 vis-à-vis effects on the cardiovascular system was acquired. While it is well known that estrogens act on the vascular system by a variety of mechanisms including vasorelaxation per se, specific confirmation of this fact for EE-3-SO4 was needed. […] Vessels are contracted by a variety of agents (i.e., endothelin-1, phenylephrine). The action(s) are measured with a force transducer and recorded digitally. […] (see FIG. 42).

[5] = 24 h after trauma-hemorrhage, Con A 48 h

SMILES	splenocyte IFN-γ release [1, 5]	splenocyte IL-2 production [1, 5]	splenocyte IL-3 release [1, 5]	splenocyte proliferative capacity ([1]; 24 h after trauma-hemorrhage, Con A, [3H]thymidine)	splenocyte IL-10 production ([1]; after trauma-hemorrhage compared with E2-treated sham-operated animals)	3-hour survival rates without fluid resuscitation ([2]; E2 i.v. 1 mg/Kg, 0.4 ml/Kg at MBO (60% of total blood volume), vehicle cyclodextrin)	long-term survival after resuscitation ([2]; Ringer's lactate 4x MBO volume after 3 hours)	intracellular pH in liver [3]	antagonism of EE-3-SO4's vessel relaxation [4]
C[C@]12CC[C@@H]3c4ccc(O)cc4CC[C@H]3[C@@H]1CC[C@@H]2O [17β-estradiol]	no depression of IFN-γ production was observed	restored IL-2 productive capacity	significantly improved splenocyte IL-3 release capacity	no depression of splenocyte proliferative capacity was observed	significantly reduced IL-10 production	markedly improves 3-hour survival rates	increases long-term survival after resuscitation	maintenance of pH near neutral; also recorded: pH remains near neutral	
C[C@]12CC[C@@H]3c4ccc(O)cc4C[C@@H](CCCCCCCCC[S+]([O-])CCCC(F)(F)C(F)(F)F)[C@H]3[C@@H]1CC[C@@H]2O (stereo partly drawn) [ICI 182,780]									completely blocked
